From patent publication US20240108601A1, “TREATMENT OF MENTAL DISORDERS” (GH Research Ireland Limited, priority 2022, published 2024)
Several values for one entry are separate records, joined by “and”; a condition that tells them apart may be missing. Equal values may be shown once.

Test system: patients with treatment-resistant major depressive disorder (TRD)
Assay: Phase 1/2 clinical trial of inhaled 5-MeO-DMT in treatment-resistant depression
Conditions: for MADRS Concentration Difficulties % improvement / MADRS Concentration Difficulties improvement / MADRS Inability to Feel % improvement / MADRS Inability to Feel improvement / MADRS Inner Tension % improvement / MADRS Inner Tension improvement / MADRS Lassitude % improvement / MADRS Lassitude improvement / MADRS Pessimistic Thoughts % improvement / MADRS Pessimistic Thoughts improvement / MADRS Suicidal Thoughts % improvement / MADRS Suicidal Thoughts improvement / MADRS Suicidal Thoughts aggregated score / MADRS Inner Tension aggregated score / MADRS Concentration Difficulties aggregated score / MADRS Inability to Feel aggregated score / MADRS Lassitude aggregated score / MADRS Pessimistic Thoughts aggregated score / BPRS Anxiety % improvement / BPRS Anxiety improvement / BPRS Blunted Affect % improvement / BPRS Blunted Affect improvement / BPRS Emotional Withdrawal % improvement / BPRS Emotional Withdrawal improvement / BPRS Guilt Feelings % improvement / BPRS Guilt Feelings improvement / BPRS Tension % improvement / BPRS Tension improvement / BPRS Blunted Affect aggregated score / BPRS Emotional Withdrawal aggregated score / BPRS Tension aggregated score / BPRS Guilt Feelings aggregated score / BPRS Anxiety aggregated score / MADRS Reduced Sleep % improvement / MADRS Reduced Sleep improvement / MADRS Reduced Sleep aggregated score: 12 mg n=4; for MADRS Suicidal Thoughts aggregated score: baseline 8; for MADRS Inner Tension aggregated score / BPRS Emotional Withdrawal aggregated score: baseline 13; for MADRS Concentration Difficulties aggregated score / MADRS Inability to Feel aggregated score / MADRS Lassitude aggregated score / MADRS Pessimistic Thoughts aggregated score: baseline 16; for BPRS Blunted Affect aggregated score: baseline 11; for BPRS Tension aggregated score: baseline 14; for BPRS Guilt Feelings aggregated score: baseline 18; for BPRS Anxiety aggregated score: baseline 25; for MADRS Reduced Sleep aggregated score: baseline 12
Procedure: Patients were assigned to different groups. In the context of the present invention, the group who received a single, 12 mg dose and the group who underwent an intra-day individualized dosing regimen (IDR) that allowed for multiple, escalating doses (6 mg, 12 mg and 18 mg) within a single day, driven by the intensity of the patient-reported psychedelic experience are of interest.
The data gathered include the assessment of the treated patients against several scales including the Montgomery Åsberg Depression Rating Scale (MADRS) and the Brief Psychiatric Rating Scale (BPRS).
This trial was designed in two parts. Part A was an open-label, single-arm, single-dose Phase 1 trial with two dose levels (12 mg (n=4) and 18 mg (n=4)). […] The primary endpoint of Part B was to assess the effects on the severity of depression, as assessed by the proportion of patients in remission on day seven after dosing, defined as a MADRS total score of less than or equal to 10.

SMILES: COc1ccc2[nH]cc(CCN(C)C)c2c1 [5-MeO-DMT]
- Patients with MADRS remission (total score ≤10) (12 mg group n=4, day seven): 50%
- Mean MADRS change from baseline (12 mg group, day seven): −21.0
- Mean MADRS change from baseline, percent (12 mg group, day seven): −65%
- MADRS Concentration Difficulties % improvement (2 h): 56% and 56.25%
- MADRS Concentration Difficulties improvement (2 h): 9 points
- MADRS Inability to Feel % improvement (2 h): 44% and 43.75%
- MADRS Inability to Feel improvement (2 h): 7 points
- MADRS Inner Tension % improvement (2 h): 85% and 84.62%
- MADRS Inner Tension improvement (2 h): 11 points
- MADRS Lassitude % improvement (2 h): 38% and 37.50%
- MADRS Lassitude improvement (2 h): 6 points
- MADRS Pessimistic Thoughts % improvement (2 h): 50%
- MADRS Pessimistic Thoughts improvement (2 h): 8 points
- MADRS Suicidal Thoughts % improvement (2 h): 63% and 62.50%
- MADRS Suicidal Thoughts improvement (2 h): 5 points
- MADRS Suicidal Thoughts aggregated score (2 h): 3
- MADRS Inner Tension aggregated score (2 h): 2
- MADRS Concentration Difficulties aggregated score (2 h): 7
- MADRS Inability to Feel aggregated score (2 h): 9
- MADRS Lassitude aggregated score (2 h): 10
- MADRS Pessimistic Thoughts aggregated score (2 h): 8
- BPRS Anxiety % improvement (3 h): 56%
- BPRS Anxiety improvement (3 h): 14 points
- BPRS Blunted Affect % improvement (3 h): 27% and 27.27%
- BPRS Blunted Affect improvement (3 h): 3 points
- BPRS Emotional Withdrawal % improvement (3 h): 15% and 15.38%
- BPRS Emotional Withdrawal improvement (3 h): 2 points
- BPRS Guilt Feelings % improvement (3 h): 50%
- BPRS Guilt Feelings improvement (3 h): 9 points
- BPRS Tension % improvement (3 h): 36% and 35.71%
- BPRS Tension improvement (3 h): 5 points
- BPRS Blunted Affect aggregated score (3 h): 8
- BPRS Emotional Withdrawal aggregated score (3 h): 11
- BPRS Tension aggregated score (3 h): 9
- BPRS Guilt Feelings aggregated score (3 h): 9
- BPRS Anxiety aggregated score (3 h): 11
- BPRS Anxiety % improvement (day 1): 76%
- BPRS Anxiety improvement (day 1): 19 points
- BPRS Blunted Affect % improvement (day 1): 45% and 45.45%
- BPRS Blunted Affect improvement (day 1): 5 points
- BPRS Emotional Withdrawal % improvement (day 1): 38% and 38.46%
- BPRS Emotional Withdrawal improvement (day 1): 5 points
- BPRS Guilt Feelings % improvement (day 1): 72% and 72.22%
- BPRS Guilt Feelings improvement (day 1): 13 points
- BPRS Tension % improvement (day 1): 57% and 57.14%
- BPRS Tension improvement (day 1): 8 points
- MADRS Concentration Difficulties % improvement (day 1): 88% and 87.50%
- MADRS Concentration Difficulties improvement (day 1): 14 points
- MADRS Inability to Feel % improvement (day 1): 94% and 93.75%
- MADRS Inability to Feel improvement (day 1): 15 points
- MADRS Inner Tension % improvement (day 1): 77% and 76.92%
- MADRS Inner Tension improvement (day 1): 10 points
- MADRS Lassitude % improvement (day 1): 100%
- MADRS Lassitude improvement (day 1): 16 points
- MADRS Pessimistic Thoughts % improvement (day 1): 56% and 56.25%
- MADRS Pessimistic Thoughts improvement (day 1): 9 points
- MADRS Reduced Sleep % improvement (day 1): 17% and 16.67%
- MADRS Reduced Sleep improvement (day 1): 2 points
- MADRS Suicidal Thoughts % improvement (day 1): 38% and 37.50%
- MADRS Suicidal Thoughts improvement (day 1): 3 points
- MADRS Suicidal Thoughts aggregated score (day 1): 5
- BPRS Blunted Affect aggregated score (day 1): 6
- MADRS Reduced Sleep aggregated score (day 1): 10
- BPRS Emotional Withdrawal aggregated score (day 1): 8
- MADRS Inner Tension aggregated score (day 1): 3
- BPRS Tension aggregated score (day 1): 6
- MADRS Concentration Difficulties aggregated score (day 1): 2
- MADRS Inability to Feel aggregated score (day 1): 1
- MADRS Lassitude aggregated score (day 1): 0
- MADRS Pessimistic Thoughts aggregated score (day 1): 7
- BPRS Guilt Feelings aggregated score (day 1): 5
- BPRS Anxiety aggregated score (day 1): 6
- BPRS Anxiety % improvement (day 7): 76%
- BPRS Anxiety improvement (day 7): 19 points
- BPRS Blunted Affect % improvement (day 7): 55% and 54.55%
- BPRS Blunted Affect improvement (day 7): 6 points
- BPRS Emotional Withdrawal % improvement (day 7): 54% and 53.85%
- BPRS Emotional Withdrawal improvement (day 7): 7 points
- BPRS Guilt Feelings % improvement (day 7): 72% and 72.22%
- BPRS Guilt Feelings improvement (day 7): 13 points
- BPRS Tension % improvement (day 7): 57% and 57.14%
- BPRS Tension improvement (day 7): 8 points
- MADRS Concentration Difficulties % improvement (day 7): 81% and 81.25%
- MADRS Concentration Difficulties improvement (day 7): 13 points
- MADRS Inability to Feel % improvement (day 7): 94% and 93.75%
- MADRS Inability to Feel improvement (day 7): 15 points
- MADRS Inner Tension % improvement (day 7): 62% and 61.54%
- MADRS Inner Tension improvement (day 7): 8 points
- MADRS Lassitude % improvement (day 7): 81% and 81.25%
- MADRS Lassitude improvement (day 7): 13 points
- MADRS Pessimistic Thoughts % improvement (day 7): 50%
- MADRS Pessimistic Thoughts improvement (day 7): 8 points
- MADRS Reduced Sleep % improvement (day 7): 50%
- MADRS Reduced Sleep improvement (day 7): 6 points
- MADRS Suicidal Thoughts % improvement (day 7): 13% and 12.50%
- MADRS Suicidal Thoughts improvement (day 7): 1 points
- MADRS Suicidal Thoughts aggregated score (day 7): 7
- BPRS Blunted Affect aggregated score (day 7): 5
- MADRS Reduced Sleep aggregated score (day 7): 6
- BPRS Emotional Withdrawal aggregated score (day 7): 6
- MADRS Inner Tension aggregated score (day 7): 5
- BPRS Tension aggregated score (day 7): 6
- MADRS Concentration Difficulties aggregated score (day 7): 3
- MADRS Inability to Feel aggregated score (day 7): 1
- MADRS Lassitude aggregated score (day 7): 3
- MADRS Pessimistic Thoughts aggregated score (day 7): 8
- BPRS Guilt Feelings aggregated score (day 7): 5
- BPRS Anxiety aggregated score (day 7): 6
- Further patients with MADRS clinical response (18 mg group n=4, day seven): 25%
- Patients with MADRS remission (total score ≤10) (18 mg group n=4, day seven): 25%
- Mean MADRS change from baseline (18 mg group, day seven): −12.8
- Mean MADRS change from baseline, percent (18 mg group, day seven): −41%
- Patients with MADRS remission (total score ≤10) (IDR (Part B) n=8, day seven, p<0.0001): 87.5%
